Source: article PMC12736958 (Pharmaceutics, 2025)
Values after ≈ are worked out from the molar mass of the structure shown. Where two headings read alike, the source gives them in different places.

Experiments:
MDCK cells = assay: cellular uptake study (LC-MS/MS of intracellular Cur); assay type: cell-based, canine; conditions: 10 min incubation, 5 μg Cur-equivalent (10 μg/mL)
Procedure: MDCK cells were seeded in 24-well plates and cultured following the procedures described in Cytotoxicity Assay section. The cells were treated with 500 µL of complete DMEM medium (pH 7.4) containing crystalline Cur, amorphous Cur, binary Cur/P188 ASD (1:8, w/w), or ternary Cur/P188/TW80 or Cur/P188/SLS ASDs (1:8:1, w/w/w), at Cur-equivalent dose of 5 µg per well. After 10 min of incubation, the treatment was terminated by immediate removal of the medium. The cells were then washed three times with ice-cold PBS, lysed with 200 µL of 0.1% SDS (assisted by sonication), and dissolved in methanol at a 1:2 (v/v) ratio. The total intracellular Cur content was quantified using LC-MS/MS. All experiments were performed in quadruplicate (n = 4).
Cur quantification in cellular and rat plasma samples was carried out using a SCIEX QTRAP® 5500 LC-MS/MS system coupled with a SCIEX ExionLC^TM AC system (AB SCIEX, Framingham, MA, USA).
Separation was achieved on an Acquity UPLC® BEH C18 column (100 × 2.1 mm, 1.7 μm; Waters) maintained at 40 °C. […]
Mass spectrometric detection was performed using an IonDrive^TM Turbo V ion (SCIEX, Framingham, MA, USA) source operating in negative electrospray ionization (ESI) mode. Quantification was conducted via multiple reaction monitoring (MRM) at m/z 367.1→133.9 for Cur, and m/z 294.1→250.0 for diclofenac sodium (IS). […]

[1] = equilibrium solubility of crystalline Cur in excipient solutions; assay type: physicochemical; conditions: read-out: equilibrium solubility (Cur con.)
Procedure: Excess crystalline Cur was suspended in each solution, vortexed (1 min), sonicated (10 min), and incubated (37 °C, 24 h). After incubation, suspensions were filtered (0.22 μm), and Cur concentration in the filtrate was quantified using HPLC/UV-Vis (HPLC/UV-Vis Method section). All experiments were performed in quadruplicate (n = 4).
Cur content in in vitro dissolution samples was quantified using a Waters 2695 Alliance HPLC system (Waters Corporation, Milford, MA, USA) equipped with a Waters 2998 photodiode array (PDA) detector. Separation was performed on an XBridge® C18 column (4.6 × 250 mm, 5.0 μm; Waters) maintained at 25 °C. The mobile phase, composed of water and methanol (80:20, v/v), was delivered isocratically at a flow rate of 1.0 mL/min. The injection volume was 10 μL, and detection was performed at 430 nm, and Cur eluted at approximately 4.80 min. […] All data were acquired in triplicate (n = 3) and processed using Empower®3 Software (Waters).

COc1cc(/C=C/C(=O)CC(=O)/C=C/c2ccc(O)c(OC)c2)ccc1O [Crystalline Cur, Curcumin]
cellular uptake (% of the administered dose) (MDCK cells): 0.2%
solubility thermodynamic at 24 h ([1]; aqueous P188/SLS solution (8 mg/mL + 1 mg/mL), pH 7, aqueous with cosolvent or surfactant or cyclodextrin, thermodynamic from solid, P188/SLS 8 mg/mL + 1 mg/mL in water, 37 °C): 8.5 µg/mL
solubility thermodynamic at 24 h ([1]; aqueous P188/TW80 solution (8 mg/mL + 1 mg/mL), pH 7, aqueous with cosolvent or surfactant or cyclodextrin, thermodynamic from solid, P188/TW80 8 mg/mL + 1 mg/mL in water, 37 °C): 10.3 µg/mL
solubility thermodynamic at 24 h ([1]; aqueous P188 solution (8 mg/mL), pH 7, P188 8 mg/mL in water, 37 °C): < 0.1 µg/mL
solubility thermodynamic at 24 h ([1]; aqueous SLS solution (1 mg/mL), pH 7, SLS 1 mg/mL in water, 37 °C): < 0.1 µg/mL
solubility thermodynamic at 24 h ([1]; aqueous TW80 solution (1 mg/mL), pH 7, aqueous with cosolvent or surfactant or cyclodextrin, thermodynamic from solid, TW80 1 mg/mL in water, 37 °C): 9.1 µg/mL (≈ 24.7 µM)
solubility thermodynamic at 24 h ([1]; thermodynamic from solid, pure water, pH 7.0, 37 °C, filtered 0.22 μm): < 0.1 µg/mL
